≈ marks a conversion by molar mass, not a printed value. Calls of active or inactive are those of the source. The calls are words filed in the database; no cut-off is given here.

Here are results for ten compounds from ChEMBL document CHEMBL4414615, “Sparticolins A-G, Biologically Active Oxidized Spirodioxynaphthalene Derivatives from the Ascomycete Sparticola junci” (J Nat Prod, 2019).

The test system of one test is Caenorhabditis elegans. The test can be described thus: Nematicidal activity against Caenorhabditis elegans incubated for 18 hrs. The format is functional. Conditions: for LC50: read-out: LD50 (the source's name).
The test system of test [1] is Micrococcus luteus. The test can be described thus: Antibacterial activity against Micrococcus luteus DSM 1790 incubated for 24 hrs by broth microdilution method. It is filed as functional. The note with it: DSM 1790, 24 h. (In general: Dilution methods test growth across graded concentrations, often in twofold steps.)
A further test has as its system Staphylococcus aureus. The test can be described thus: Antibacterial activity against Staphylococcus aureus DSM 346 incubated for 24 hrs by broth microdilution method. The format is functional. Conditions: DSM 346, 24 h.
Test [2] relates to Chromobacterium violaceum. Nature of the test: Antibacterial activity against Chromobacterium violaceum DSM 30191 incubated for 24 hrs by broth microdilution method. The format is functional. The note with it: DSM 30191, 24 h.
In test [3] the test system is Bacillus subtilis. The test can be described thus: Antibacterial activity against Bacillus subtilis DSM 10 incubated for 24 hrs by broth microdilution method. It is filed as functional. Conditions: DSM 10, 24 h.
For test [4], the system named is Escherichia coli. Nature of the test: Antibacterial activity against Escherichia coli DSM 1116 incubated for 24 hrs by broth microdilution method. It is filed as functional. Conditions: DSM 1116, 24 h.
The test system of a further test is PC-3. The test can be described thus: Cytotoxicity against human PC3 cells assessed as reduction in cell growth incubated for 5 days by MTT assay. The format is functional, cell-based. On the technique in general: Tetrazolium assays rely on reduction of a dye to a coloured formazan, in cell work by metabolically active cells.
In test [5] the test system is Chromobacterium violaceum. Nature of the test: Antibacterial activity against Chromobacterium violaceum DSM 30191 at 66 ug/ml incubated for 24 hrs by broth microdilution method. It is filed as functional, organism-based.
The next test concerns A-431. Nature of the test: Cytotoxicity against human A431 cells assessed as reduction in cell growth incubated for 5 days by MTT assay. It is filed as functional, cell-based.
The next test has as its system SK-OV-3. Nature of the test: Cytotoxicity against human SKOV3 cells assessed as reduction in cell growth incubated for 5 days by MTT assay. It is filed as functional, cell-based.
Test [6] relates to Mucor hiemalis. The test can be described thus: Antifungal activity against Mucor hiemalis DSM 2656 at 66 ug/ml incubated for 48 hrs by broth microdilution method. It is filed as functional, organism-based.
Another test deals with L929. Nature of the test: Cytotoxicity against mouse L929 cells assessed as reduction in cell growth incubated for 5 days by MTT assay. It is filed as functional, cell-based.
Test [7] concerns Pseudomonas aeruginosa. The test can be described thus: Antibacterial activity against Pseudomonas aeruginosa DSM PA14 at 66 ug/ml incubated for 24 hrs by broth microdilution method. It is filed as functional, organism-based.
In test [8] the test system is Bacillus subtilis. The test can be described thus: Antibacterial activity against Bacillus subtilis DSM 10 at 66 ug/ml incubated for 24 hrs by broth microdilution method. The format is functional, organism-based.
For another test, the system named is KB 3-1. The test can be described thus: Cytotoxicity against human KB3-1 cells assessed as reduction in cell growth incubated for 5 days by MTT assay. The format is functional, cell-based.
The subject of test [9] is Micrococcus luteus. Nature of the test: Antibacterial activity against Micrococcus luteus DSM 1790 at 66 ug/ml incubated for 24 hrs by broth microdilution method. It is filed as functional, organism-based.
In test [10] the test system is Candida albicans. The test can be described thus: Antifungal activity against Candida albicans DSM 1665 at 66 ug/ml incubated for 48 hrs by broth microdilution method. It is filed as functional, organism-based.
Test [11] concerns Wickerhamomyces anomalus. Nature of the test: Antifungal activity against Pichia anomala DSM 6766 at 66 ug/ml incubated for 48 hrs by broth microdilution method. It is filed as functional, organism-based.
For the next test, the system named is MCF7. The test can be described thus: Cytotoxicity against human MCF7 cells assessed as reduction in cell growth incubated for 5 days by MTT assay. The format is functional, cell-based.
The subject of test [12] is Mycolicibacterium smegmatis. Nature of the test: Antibacterial activity against Mycobacterium smegmatis ATCC 700084 at 66 ug/ml incubated for 24 hrs by broth microdilution method. The format is functional, organism-based.
For test [13], the system named is Rhodotorula glutinis. The test can be described thus: Antifungal activity against Rhodotorula glutinis DSM 10134 at 66 ug/ml incubated for 48 hrs by broth microdilution method. It is filed as functional, organism-based.
In test [14] the test system is Escherichia coli. The test can be described thus: Antibacterial activity against Escherichia coli DSM 1116 at 66 ug/ml incubated for 24 hrs by broth microdilution method. The format is functional, organism-based.
The subject of the next test is A549. Nature of the test: Cytotoxicity against human A549 cells assessed as reduction in cell growth incubated for 5 days by MTT assay. The format is functional, cell-based.
The subject of test [15] is Schizosaccharomyces pombe. The test can be described thus: Antifungal activity against Schizosaccharomyces pombe DSM 70572 at 66 ug/ml incubated for 48 hrs by broth microdilution method. It is filed as functional, organism-based.
In test [16] the test system is Mycolicibacterium smegmatis. Nature of the test: Antibacterial activity against Mycobacterium smegmatis ATCC 700084 incubated for 24 hrs by broth microdilution method. The format is functional. The note with it: ATCC 700084, 24 h.
For test [17], the system named is Pseudomonas aeruginosa. The test can be described thus: Antibacterial activity against Pseudomonas aeruginosa DSM PA14 incubated for 24 hrs by broth microdilution method. The format is functional, organism-based.
Test [18] concerns Wickerhamomyces anomalus. The test can be described thus: Antifungal activity against Pichia anomala DSM 6766 incubated for 48 hrs by broth microdilution method. It is filed as functional.
Test [19] deals with Schizosaccharomyces pombe. Nature of the test: Antifungal activity against Schizosaccharomyces pombe DSM 70572 incubated for 48 hrs by broth microdilution method. The format is functional.
Test [20] has as its system Mucor hiemalis. The test can be described thus: Antifungal activity against Mucor hiemalis DSM 2656 incubated for 48 hrs by broth microdilution method. The format is functional.
Test [21] deals with Candida albicans. Nature of the test: Antifungal activity against Candida albicans DSM 1665 incubated for 48 hrs by broth microdilution method. The format is functional.
Test [22] has as its system Rhodotorula glutinis. The test can be described thus: Antifungal activity against Rhodotorula glutinis DSM 10134 incubated for 48 hrs by broth microdilution method. It is filed as functional.
The mark [23] stands for this setting: Homo sapiens, KB 3-1, 120 h, read-out: IC50.
Where [24] appears, read: Homo sapiens, PC-3, 120 h, read-out: IC50.
Where [25] appears, read: Homo sapiens, A-431, 120 h, read-out: IC50.
Setting [26] is: Homo sapiens, SK-OV-3, 120 h, read-out: IC50.
Setting [27] is: Mus musculus, L929, 120 h, read-out: IC50.
Setting [28] is: Homo sapiens, MCF7, 120 h, read-out: IC50.
The mark [29] stands for this setting: Homo sapiens, A549, 120 h, read-out: IC50.

IVERMECTIN: the LD50 with Caenorhabditis elegans came to 1 µg/mL.
Usually MIC stands for the lowest concentration found to suppress growth. A lower MIC goes with inhibition by little substance. For the compound `CN(C)[C@@H]1C(=O)C(C(N)=O)=C(O)[C@@]2(O)C(=O)C3=C(O)c4c(O)cccc4[C@@](C)(O)[C@H]3[C@H](O)[C@@H]12.Cl`, the MIC in the test with Micrococcus luteus [1] was determined as 4.2 µg/mL; in the test with Staphylococcus aureus, 2.1 µg/mL; in test [2], 4.1 µg/mL; in the test with Bacillus subtilis [3] it was 2.4 µg/mL; with Escherichia coli [4], 33.3 µg/mL.
By IC50 is commonly meant the concentration that inhibits the measured activity by half. Regarding `O=C(O)/C=C/C[C@H]1[C@@H](O)C=CC12Oc1cccc3cccc(c13)O2`, the IC50 entry in the test with PC-3 (pc-3) was “Not Active”; in the test on A-431 (a-431) it was “Not Active”; with SK-OV-3 (sk-ov-3), “Not Active”; with L929 (l929) it was “Not Active”; with KB 3-1 (setting [23]), 40100 nM; in the test with MCF7 (mcf7) it was “Not Active”. The IC50 result with A549 (a549) is “Not Active”. Also, the result (in test [5]; in the test with Mucor hiemalis [6]; with Pseudomonas aeruginosa [7]; in the test with Bacillus subtilis [8]; with Micrococcus luteus [9]; in the test on Candida albicans [10]) was inactive. The result (with Wickerhamomyces anomalus [11]; in test [12]; in the test on Rhodotorula glutinis [13]; with Escherichia coli [14]; in [15]) was inactive. The same compound had an MIC with Staphylococcus aureus of 66.6 µg/mL (≈ 205 µM). Besides, the LC50 in the test on Caenorhabditis elegans came to 25 µg/mL (≈ 77.1 µM).
Take `NC[C@H]1O[C@H](O[C@H]2[C@H](O)[C@@H](O[C@H]3O[C@H](CO)[C@@H](O)[C@H](N)[C@H]3O)[C@H](N)C[C@@H]2N)[C@H](O)[C@@H](O)[C@@H]1O` [KANAMYCIN]: 4.1 µg/mL (≈ 8.46 µM) was the least that counted as inhibitory in [16] (MIC).
GENTAMICIN came in with an MIC against Pseudomonas aeruginosa [17] of 1 µg/mL.
With `O=C(O)/C=C/C=C1\[C@@H](O)C[C@H](O)C12Oc1cccc3cccc(c13)O2`, the IC50 result in the test with PC-3 (pc-3), with A-431 (a-431), with SK-OV-3 (sk-ov-3), in the test on L929 (l929), in the test on KB 3-1 (kb 3-1) and in the test on MCF7 (mcf7) was “Not Active” in each case. Further, in the test on A549 (a549), the IC50 entry is given as “Not Active”. Also, the outcome (in [5]; in the test on Mucor hiemalis [6]; with Pseudomonas aeruginosa [7]; in the test with Bacillus subtilis [8]; with Micrococcus luteus [9]; in the test on Candida albicans [10]) was inactive. The result (in the test on Wickerhamomyces anomalus [11]; in test [12]; in the test with Rhodotorula glutinis [13]; with Escherichia coli [14]; in test [15]) was inactive. The same compound returned an MIC in the test on Staphylococcus aureus of 66.6 µg/mL (≈ 196 µM). The LC50 with Caenorhabditis elegans stood at 50 µg/mL (≈ 147 µM).
On to NYSTATIN, for which the MIC was 8.3 µg/mL against Wickerhamomyces anomalus [18]; 8.3 µg/mL in test [19]; 4.2 µg/mL in the test on Mucor hiemalis [20]; 8.3 µg/mL with Candida albicans [21]; 1 µg/mL in the test with Rhodotorula glutinis [22].
For the compound `O=C(O)/C=C/C=C1\C(=O)C=CC12Oc1cccc3cccc(c13)O2`, the IC50 in the test on PC-3 (setting [24]) was 900 nM; in the test with A-431 (setting [25]), 200 nM; in the test with SK-OV-3 (setting [26]), 600 nM; in the test on L929 (setting [27]) it was 600 nM; with KB 3-1 (setting [23]), 800 nM; in the test on MCF7 (setting [28]) it was 400 nM. Further, in the test on A549 (setting [29]), the IC50 came out at 2200 nM. In addition, the MIC is 8.3 µg/mL (≈ 25.9 µM) in the test with Micrococcus luteus [1]; 33.3 µg/mL (≈ 104 µM) in [19] (DSM 70572, 48 h); 16.7 µg/mL (≈ 52.1 µM) against Mucor hiemalis [20] (DSM 2656, 48 h); 4.2 µg/mL (≈ 13.1 µM) in the test on Staphylococcus aureus; 33.3 µg/mL (≈ 104 µM) in the test on Rhodotorula glutinis [22] (DSM 10134, 48 h); 4.2 µg/mL (≈ 13.1 µM) in the test with Bacillus subtilis [3]. Further, the outcome (in [5]; with Pseudomonas aeruginosa [7]; in the test with Candida albicans [10]; in the test with Wickerhamomyces anomalus [11]; in test [12]; with Escherichia coli [14]) was inactive. For the same compound, the LC50 with Caenorhabditis elegans is 50 µg/mL (≈ 156 µM).
As for `O=C(O)/C=C/C=C1\[C@@H](O)C=CC12Oc1cccc3cccc(c13)O2`, the IC50 result in the test with PC-3 (pc-3), in the test on A-431 (a-431), in the test on SK-OV-3 (sk-ov-3), in the test with L929 (l929), in the test on KB 3-1 (kb 3-1) and in the test on MCF7 (mcf7) was “Not Active” each time. Further, the IC50 result with A549 (a549) is recorded as “Not Active”. Moreover, the outcome (in test [5]; with Mucor hiemalis [6]; with Pseudomonas aeruginosa [7]; with Bacillus subtilis [8]; with Micrococcus luteus [9]; with Candida albicans [10]) was inactive. Further, the outcome (with Wickerhamomyces anomalus [11]; in test [12]; in the test with Rhodotorula glutinis [13]; in the test with Escherichia coli [14]; in [15]) was inactive. In the test with Staphylococcus aureus, this compound came in with an MIC of 66.6 µg/mL (≈ 207 µM). In the test with Caenorhabditis elegans, the LC50 turned out to be 50 µg/mL (≈ 155 µM).
Consider `C/C(=C\c1csc(C)n1)[C@@H]1C[C@@H]2O[C@]2(C)CCC[C@H](C)[C@H](O)[C@@H](C)C(=O)C(C)(C)[C@@H](O)CC(=O)O1` [PATUPILONE], for which the IC50 with PC-3 (setting [24]) was found to be 1.6 nM; in the test on A-431 (setting [25]), 0.079 nM; with SK-OV-3 (setting [26]) it was 0.28 nM; in the test on L929 (setting [27]) it was 1.4 nM; in the test with KB 3-1 (setting [23]), 0.089 nM; in the test on MCF7 (setting [28]), 0.24 nM. The IC50 with A549 (setting [29]) came out at 0.069 nM.
